Results taken from patent publication US20250289897A1, “LEPTIN RECEPTOR AGONISTIC ANTIBODY AS MONO OR COMBO THERAPIES TO TREAT OBESITY” (ELI LILLY AND COMPANY, priority 2024, published 2025).

Tested on: canine-LEPR
Assay: STAT3-luciferase reporter assay in HEK293-STAT3Luc-dLepR7 cells
Format: cell-based, Canis lupus
Source text: LEPR is a cell surface single-pass transmembrane receptor. Activation of LEPR leads to phosphorylation of intracellular STAT3 (pSTAT3) and subsequent target gene transcription. To measure LEPR activation by anti-LEPR antibodies in the present disclosure, five independent STAT-luciferase reporter cell lines were established by introducing DNA plasmids encoding full-length LEPR of different species and STAT3-luciferase reporter gene into HEK293 cells (Table 4). […]
Before plating the cells for luciferase assays, the poly-D-Lysine coated 96-well plates (Corning Inc, #354651) were rinsed once with phosphate buffered solution (PBS). […] Cell lysing and One-Glo luciferase substrate solution (Promega, #E6120) were then added to each well, and relative luciferase units (RLUs) were measured on a ClarioStar plate reader. For each reporter cell line, positive control LEPR activation was calculated as the average RLUs stimulated by 20 nM recombinant human leptin protein (SEQ ID NO:27) minus the average RLUs of unstimulated cells and was set as maximum LEPR activation (100%). […]

For “human leptin: recombinant human leptin protein (SEQ ID NO:27), positive control”, the EC50 (STAT3-luciferase, 20 hours, read-out: EC50 (nM) ± SEM) was 0.582 ± 0.172 nM and the “Agonism (%) ± SEM” value (top of fitted curve vs response to 20 nM recombinant human leptin) was 107.5%.
